Results on 18 compounds are retold here after BindingDB's records for doi:10.7270/Q2Q52NH6 (Catholic University of Daegu, 2017).

The structures appear in SMILES notation.

Assay [1] addresses T1, Tyrosine-protein phosphatase non-receptor type 1 (Homo sapiens, UniProt P18031).
T1 sequence (P18031 whole entry): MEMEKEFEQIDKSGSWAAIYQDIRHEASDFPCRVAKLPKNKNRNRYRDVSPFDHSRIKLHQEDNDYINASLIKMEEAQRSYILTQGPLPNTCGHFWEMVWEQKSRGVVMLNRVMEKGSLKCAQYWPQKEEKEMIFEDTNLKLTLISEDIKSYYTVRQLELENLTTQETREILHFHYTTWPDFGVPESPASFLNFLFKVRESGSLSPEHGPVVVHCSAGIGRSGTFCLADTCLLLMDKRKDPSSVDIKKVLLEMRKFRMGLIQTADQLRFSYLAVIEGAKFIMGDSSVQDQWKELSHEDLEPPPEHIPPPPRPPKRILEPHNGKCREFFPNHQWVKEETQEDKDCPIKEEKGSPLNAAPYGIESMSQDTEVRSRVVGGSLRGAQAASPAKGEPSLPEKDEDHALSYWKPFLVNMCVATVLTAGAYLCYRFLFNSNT
Nature of the assay: PTP1B Inhibitory Assay. Conditions: pH 6. As for the experimental part: PTP1B activity was measured by adding 2mM p-NPP and PTP1B in a 50 mM citrate buffer (pH 6.0, 0.1 M NaCl, 1 mMEDTA, and 1 mM dithiothreitol), with or without tested compounds. The plate was pre-incubated at 37 °C for 10 min, and then 50 μL of p-NPP in buffer was added. After incubating at 37 °C for 30 min, the reaction was then terminated with 1 N NaOH.

For another assay, the target named is Acetylcholinesterase (Homo sapiens, UniProt P22303). As to the kind of experiment: Acetylcholinesterase Inhibitory Assay. The note with it: pH 8; 25 °C. As for the experimental part: Briefly, 140 μL of sodium phosphate buffer (pH 8.0), 20 μL of each tested compound with different concentrations (4, 20, and 100 μM) and 20 μL enzyme solution were mixed and incubated at room temperature for 15 min. The reactions were initiated by the addition of 10 μL of 0.01 M 5,5'-dithiobis(2-nitrobenzoic acid) (DTNB) and 10 μL of 0.075 ATCI. […] The reaction was independently experimented for three times and recorded in 96-well microplates using a microplate reader (VersaMax).
Sequence of Acetylcholinesterase (P22303 whole entry): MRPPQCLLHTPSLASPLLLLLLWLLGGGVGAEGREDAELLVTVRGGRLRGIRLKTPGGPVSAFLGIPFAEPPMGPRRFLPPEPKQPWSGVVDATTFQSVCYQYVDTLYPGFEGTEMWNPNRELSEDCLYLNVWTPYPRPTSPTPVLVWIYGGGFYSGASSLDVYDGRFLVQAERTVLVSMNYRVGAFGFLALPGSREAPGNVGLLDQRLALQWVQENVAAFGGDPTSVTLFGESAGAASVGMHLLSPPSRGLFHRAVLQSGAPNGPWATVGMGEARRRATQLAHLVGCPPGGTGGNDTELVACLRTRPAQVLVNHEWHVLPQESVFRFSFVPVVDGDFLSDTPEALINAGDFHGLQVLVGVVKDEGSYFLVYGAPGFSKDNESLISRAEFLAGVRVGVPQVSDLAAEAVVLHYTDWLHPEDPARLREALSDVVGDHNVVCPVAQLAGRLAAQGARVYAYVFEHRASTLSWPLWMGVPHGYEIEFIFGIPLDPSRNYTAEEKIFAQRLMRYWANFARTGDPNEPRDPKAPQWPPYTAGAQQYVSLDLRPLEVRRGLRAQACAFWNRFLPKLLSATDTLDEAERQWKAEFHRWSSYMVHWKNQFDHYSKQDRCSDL

Assay [2] has as its target T1, Tyrosine-protein phosphatase non-receptor type 1. As to the kind of experiment: Kinetic Analysis. As for the experimental part:
The reaction mixtures contained in various different concentrations of p-NPP as a PTP1B substrate in the presence or absence of the active compound. The kinetic analysis was evaluated for Michaelis-Menten plot, Lineweaver-Burk plot, and Dixon plot. The Michaelis constant (Km), maximum velocity (Vmax), and the inhibition constants (Ki) were determined by using Sigma Plot software (13.0 software, SPCC Inc., Chicago, IL, USA).

A word on the IC50: it is the concentration at which inhibition is half-maximal. A higher IC50 goes with weaker potency. As for `O=c1cc(-c2ccc(O)c(O)c2)oc2cc(O[C@@H]3O[C@H](CO)[C@@H](O)[C@H](O)[C@H]3O)cc(O)c12`, the figures for the IC50 (in assay [1]; at Acetylcholinesterase) were 71.6 µM and 74.7 µM, respectively.
The compound `O=c1c(O)c(-c2ccc(O)c(O)c2)oc2cc(O)cc(O)c12` [2-(3,4-dihydroxyphenyl)-3,5,7-trihydroxy-chromone;hydrate] showed an IC50 on Acetylcholinesterase of 72.8 µM.
For `O=c1c(O[C@@H]2O[C@H](CO)[C@@H](O)[C@H](O)[C@H]2O)c(-c2ccc(O)c(O)c2)oc2cc(O)cc(O)c12` [2-(3,4-dihydroxyphenyl)-5,7-dihydroxy-3-[(2S,3R,4S,5S,6R)-3,4,5-trihydroxy-6-(hydroxymethyl)oxan-2-yl]oxychromen-4-one], the IC50 in assay [1] worked out at 100 µM; against Acetylcholinesterase it was 84.8 µM.
`COC(=O)[C@H]1O[C@@H](Oc2cc(O)c3c(=O)cc(-c4ccc(O)cc4)oc3c2)C(O[C@@H]2OC(CO)[C@@H](O)C(O)[C@@H]2O)[C@H]1O` (some centres not stated) [Agriflavone (2)]: the IC50 in assay [1] came out at 100 µM; against Acetylcholinesterase, 63.4 µM.
The corresponding values for `O=C(O[C@H]1OC(CO)[C@@H](O)[C@@H]2OC(=O)c3cc(O)c(O)c(c3O)-c3c(O)c(O)cc(c3O)C(=O)OC12)c1cc(O)c(O)c(O)c1` (some centres not stated) [Agritannin (1)] are 17 µM and 60.2 µM.
As a reminder, the Ki is a measure of affinity in units of concentration, obtained from inhibition or displacement. Low readings indicate tighter binding, high ones weaker binding. `O=c1oc2c(O)c(O)cc3c(=O)oc4c(O)c(O)cc1c4c23` [Elagic Acid]: the figures for the IC50 (in assay [1]; at Acetylcholinesterase) were 7.73 µM and 100 µM, respectively. The Ki in assay [2] was 2.8 µM.
`O=c1c(O[C@@H]2O[C@H](CO)[C@@H](O)[C@H](O)[C@H]2O)c(-c2ccc(O)cc2)oc2cc(O)cc(O)c12` [Kaempferol 3-O-β-D-glucoside (6)]: the IC50 is 60.7 µM in assay [1] and 89.6 µM against Acetylcholinesterase.
`O=c1c(O)c(-c2ccc(O)cc2)oc2cc(O[C@@H]3O[C@H](CO)[C@@H](O)[C@H](O)[C@H]3O)cc(O)c12` [Kaempferol 7-O-β-D-glucoside (4)]: the IC50 in assay [1] came to 100 µM; at Acetylcholinesterase, 63.9 µM.
The corresponding values for `O=C(O)[C@H]1O[C@@H](Oc2cc(O)c3c(=O)c(O)c(-c4ccc(O)cc4)oc3c2)[C@H](O)[C@@H](O)[C@@H]1O` [Kaempferol 7-O-β-D-glucuronide (5)] are 48.3 µM and 64 µM.
On to `O=c1cc(-c2ccc(O)c(O[C@@H]3O[C@H](CO)[C@@H](O)[C@H](O)[C@H]3O)c2)oc2cc(O)cc(O)c12` [Luteolin 3'-O-β-D-glucoside (17)], for which the IC50 in assay [1] was 100 µM; at Acetylcholinesterase, 74.6 µM.
With `O=C(O)[C@H]1O[C@@H](Oc2cc(O)c3c(=O)cc(-c4ccc(O)c(O)c4)oc3c2)[C@H](O)[C@@H](O)[C@@H]1O` [Luteolin 7-O-β-D-glucuronide (14)], the IC50 in assay [1] is 38.1 µM; at Acetylcholinesterase, 88.1 µM.
Take `O=C(OCCCCOc1cc(O)c2c(=O)cc(-c3ccc(O)c(O)c3)oc2c1)[C@H]1O[C@@H](O)[C@H](O)[C@@H](O)[C@@H]1O` [Luteolin 7-O-β-D-glucuronide butyl ester (16)]: the IC50 in assay [1] was 100 µM; against Acetylcholinesterase, 76.9 µM.
Taken in the same sequence, the figures for `O=C(OCOc1cc(O)c2c(=O)cc(-c3ccc(O)c(O)c3)oc2c1)[C@H]1O[C@@H](O)[C@H](O)[C@@H](O)[C@@H]1O` [Luteolin 7-O-β-D-glucuronide methyl ester (15)] were 49.1 µM and 65.9 µM.
Take `O=c1cc(-c2ccc(O)cc2)oc2cc(O[C@@H]3O[C@H](CO)[C@@H](O)[C@H](O)[C@H]3O)cc(O)c12` [NSC-407303]: the IC50 (in assay [1]; against Acetylcholinesterase) was 100 µM throughout.
Consider `O=c1cc(-c2ccc(O)cc2)oc2cc(O)cc(O)c12` [Naringenin, 18], for which the IC50 in assay [1] was 100 µM; on Acetylcholinesterase it was 64.3 µM.
With `O=c1c(O)c(-c2ccc(O)c(O[C@@H]3O[C@H](CO)[C@@H](O)[C@H](O)[C@H]3O)c2)oc2cc(O)cc(O)c12` [Quercetin 3'-O-β-D-glucoside (12)], the IC50 in assay [1] is 100 µM; at Acetylcholinesterase, 89.2 µM.
On to `O=C(O)[C@H]1O[C@@H](Oc2cc(O)c3c(=O)cc(-c4ccc(O)cc4)oc3c2)[C@H](O)[C@@H](O)[C@@H]1O` [apigenin-7-O-betaD-glucuronic acid], for which the figures for the IC50 (in assay [1]; against Acetylcholinesterase) were 7.14 µM and 63 µM, respectively. The same compound gave an inhibition constant Ki in assay [2] of 2.6 µM.
With `COc1cc(C2Oc3c(OC)cc(CCCO)cc3C2CO)ccc1O[C@@H]1OC(CO)[C@@H](O)C(O)[C@@H]1O` (stereo partly drawn) [dihydrodehydrodiconifeyl alcohol 9'-O-β-D-glucose (19)], the IC50 was 100 µM in assay [1] and 92.8 µM against Acetylcholinesterase.
